Source: patent USRE43274E1, “Fluorinated photosensitizers related to chlorins and bacteriochlorins for photodynamic therapy” (Health Research, Inc., priority 2002, dated 2012)

How the values were obtained:
[1] = Electronic absorption spectra in dichloromethane; format: physicochemical
Procedure: The electronic absorption spectra of PHOTOFRIN® (a porphyrin analog), HPPH (a chlorin bearing a five-membered isocyclic ring) and the purpurinimide 9 (a chlorin with an expanded, six-membered fused imide ring) were measured in dichloromethane at the same molar concentrations.

[2] = test system: RIF tumors; experiment: In vivo photosensitizing (PDT) efficacy, tumor response in C3H mice transplanted with RIF tumors; design: species or system mouse
Procedure: In brief, C3H/HEJ mice were subjected to intradermal injection with 2×10^5 RIF cells in […] HBSS w/o Ca^+2 and magnesium, into the flank and allowed to grow until they were 4-5 mm in diameter. The day before tumors were treatment size, the mice were injected with variable doses of substantially pure photosensitizers (1.0 mg/kg, 0.4 mg/kg). […] The mice (6 mice/group in two groups) were checked daily, the tumors were measured using two orthogonal measurements L and W (perpendicular to L) and the volumes were calculated using the formula V=L×W^2/2 and recorded. Mice were considered cured if there was no palpable tumor at 90 days post-PDT treatment.
In the control group, six mice were exposed to light without injecting any photosensitizer.
The in vivo photosensitizing efficacy of bacteriochlorins 16 and 18 was determined in C3H mice (5 mice/group) at variable concentration up to 1.0 μmol/Kg.

[3] = Stability of Schiff base 17 / amine 18 (in vivo reflectance spectroscopy); conditions: 17: in vivo, converted into acetyl analog 15, determined by in vivo reflectance spectroscopy
Procedure: For example, when the reaction was performed at elevated temperature, the N-fluorinated derivative 15 and the corresponding Schiff base 17 (obtained from the reaction of the 3-acetyl group with an amine) was isolated in almost equal ratio. However, at low temperature, 3-acetyl-N-substituted-bacteriopurpurinimide 15 was isolated as a major product. Bacteriochlorin 15 on reaction with sodium borohydride and then with HBr gas followed by a reaction with n-butyl alcohol produced the corresponding butyl ether derivative 16. […] However, reduction of 17 with sodium borohydride at room temperature produced stable amine 18. See Scheme 2.

[4] = dose 1.0 μmol/Kg, day 90, C3H mice

## HPPH
[1]
  red-shift compared with PHOTOFRIN: 30 nm
[1]; same molar concentrations
  ε (long wavelength absorption): 45,000
  λmax (long wavelength absorption): 660 nm

## purpurin-18-N-butyl-3-O-{1′-3″,5″-bis(trifluoromethyl)-benzyl ether}imide [compound 12]
[2]; dose 0.4 mg/kg, light 706 nm, 135 J/cm2 at 24 hours post-injection, day 90, C3H/HeJ mice
  tumor response: 66%

## CCC1c2cc3[nH]c4c(c5nc(cc6[nH]c(cc(n2)C1C)c(C(C)NCc1cc(C(F)(F)F)cc(C(F)(F)F)c1)c6C)[C@@H](C)[C@@H]5CCC(=O)OC)C(=O)N(Cc1cc(C(F)(F)F)cc(C(F)(F)F)c1)C(=O)c4c3C (stereo partly shown) [compound 18]
[2]; [4]
  mice tumor free: 3/5
  tumor response: 60%
[3]
  stability: stable
